According to ChEMBL document CHEMBL4118066, “QSAR-driven design, synthesis and discovery of potent chalcone derivatives with antitubercular activity” (Eur J Med Chem, 2017):
≈ marks a conversion by molar mass, not a printed value.

What was measured:
[1] = tested on: Mycobacterium kansasii; assay: Antimycobacterial activity against Mycobacterium kansasii ATCC 12478 after 7 days under normoxic condition by microplate Alamar blue assay; format: functional; conditions: ATCC 12478, 168 h
[2] = tested on: Candida albicans; assay: Antifungal activity against Candida albicans ATCC 90028 after 36 to 48 hrs; format: functional
[3] = tested on: Mycolicibacterium smegmatis; assay: Antimycobacterial activity against Mycobacterium smegmatis ATCC MC2155 after 7 days under normoxic condition by microplate Alamar blue assay; format: functional; conditions: str. MC2 155, 168 h
[4] = in vitro; conditions: monkey, Vero cells
Description: Selectivity index, ratio of IC50 for African green monkey Vero cells to MIC90 for Mycobacterium tuberculosis H37Rv ATCC 27294 under normoxic condition

[5] = tested on: Mycobacteroides abscessus; assay: Antimycobacterial activity against Mycobacterium abscessus ATCC 19977 after 7 days under normoxic condition by microplate Alamar blue assay; format: functional; conditions: ATCC 19977, 168 h
[6] = tested on: Mycobacterium avium; assay: Antimycobacterial activity against Mycobacterium avium ATCC 15769 after 7 days under normoxic condition by microplate Alamar blue assay; format: functional; conditions: ATCC 15769, 168 h
[7] = tested on: Mycobacterium tuberculosis; assay: microbe, parasite or virus in culture; format: functional; conditions: H37Rv ATCC 27294, 168 h
Description: Antitubercular activity against Mycobacterium tuberculosis H37Rv ATCC 27294 after 7 days under normoxic condition by microplate Alamar blue assay

[8] = tested on: Mycobacterium tuberculosis; assay: Antitubercular activity against Mycobacterium tuberculosis H37Rv ATCC 27294 treated for 10 days under hypoxic condition followed by 28 hrs of normoxic recovery; format: functional
[9] = tested on: Mycobacteroides chelonae; assay: Antimycobacterial activity against Mycobacterium chelonae ATCC 35752 after 7 days under normoxic condition by microplate Alamar blue assay; format: functional; conditions: ATCC 35752, 168 h
[10] = tested on: Staphylococcus aureus; assay: Antibacterial activity against Staphylococcus aureus ATCC 29213 after 16 to 20 hrs; format: functional
[11] = tested on: Escherichia coli; assay: Antibacterial activity against Escherichia coli ATCC 25922 after 16 to 20 hrs; format: functional
[12] = tested on: Mycobacterium marinum; assay: Antimycobacterial activity against Mycobacterium marinum ATCC 927 after 7 days under normoxic condition by microplate Alamar blue assay; format: functional; conditions: ATCC 927, 168 h

Row | Compound | MIC90 [1] [µM] | MIC90 [2] [µM] | MIC90 [3] [µM] | selectivity ratio [4] | MIC90 [5] [µM] | MIC90 [6] [µM] | MIC90 [7] [µM] | MIC90 [8] [µM] | MIC90 [9] [µM] | MIC90 [10] [µM] | MIC90 [11] [µM] | MIC90 [12] [µM]
1 | CSc1ccc(C(=O)/C=C/c2ccc([N+](=O)[O-])s2)cc1 | 3.86 (≈ 1.18 µg/mL) | > 10 | > 10 | 222 | > 10 | 6.89 (≈ 2.1 µg/mL) | 0.45 (≈ 0.137 µg/mL) | 5.96 (≈ 1.82 µg/mL) | > 10 | > 10 | > 10 | > 10
2 | O=C(/C=C/c1ccc([N+](=O)[O-])s1)c1ccc(-n2ccnc2)cc1 | 0.56 (≈ 0.182 µg/mL) | > 10 | 4.39 (≈ 1.43 µg/mL) | 225 | 4.7 (≈ 1.53 µg/mL) | 2.1 (≈ 0.683 µg/mL) | 0.19 (≈ 0.0618 µg/mL) | 1.73 (≈ 0.563 µg/mL) | 1.63 (≈ 0.53 µg/mL) | 0.28 (≈ 0.0911 µg/mL) | > 10 | > 10
3 | O=C(/C=C/c1ccc([N+](=O)[O-])o1)c1cccc(Br)c1 | 1.65 (≈ 0.531 µg/mL) | > 10 | 4.84 (≈ 1.56 µg/mL) | 52 | > 10 | 2.95 (≈ 0.95 µg/mL) | 1.32 (≈ 0.425 µg/mL) | 5.65 (≈ 1.82 µg/mL) | > 10 | 1.68 (≈ 0.541 µg/mL) | > 10 | > 10
4 | O=C(/C=C/c1ccc([N+](=O)[O-])o1)c1ccc(-c2ccccc2)cc1 | 0.49 (≈ 0.156 µg/mL) | > 10 | > 10 | 25 | > 10 | 1.27 (≈ 0.406 µg/mL) | 3.91 (≈ 1.25 µg/mL) | 3.18 (≈ 1.02 µg/mL) | > 10 | > 10 | > 10 | > 10
5 | Cc1ccccc1C(=O)/C=C/c1ccc([N+](=O)[O-])o1 | 1.16 (≈ 0.298 µg/mL) | 6.36 (≈ 1.64 µg/mL) | 9.5 (≈ 2.44 µg/mL) | 41 | > 10 | 3.04 (≈ 0.782 µg/mL) | 0.57 (≈ 0.147 µg/mL) | 4.59 (≈ 1.18 µg/mL) | > 10 | 1.09 (≈ 0.28 µg/mL) | > 10 | > 10
6 | CSc1ccc(C(=O)/C=C/c2ccc([N+](=O)[O-])o2)cc1 | 0.3 (≈ 0.0868 µg/mL) | > 10 | 4.81 (≈ 1.39 µg/mL) | 61 | > 10 | 1.39 (≈ 0.402 µg/mL) | 0.66 (≈ 0.191 µg/mL) | 5.07 (≈ 1.47 µg/mL) | 4.66 (≈ 1.35 µg/mL) | 0.58 (≈ 0.168 µg/mL) | > 10 | > 10
7 | CCCCc1ccc(C(=O)/C=C/c2ccc([N+](=O)[O-])s2)cc1 | 1.73 (≈ 0.546 µg/mL) | > 10 | > 10 | 81 | > 10 | 2.14 (≈ 0.675 µg/mL) | 0.54 (≈ 0.17 µg/mL) | 5.56 (≈ 1.75 µg/mL) | > 10 | > 10 | > 10 | > 10
